Earlier results on one compound are cited in patent US20080166420A1, “Krill Oil Compositions” (priority 2007, published 2008).

For the compound `O=C(O)c1cccnc1` [Niacin, niacin], where the note is “clinically shown”, the “C-reactive protein (CRP)” value was “reduce”, the high density lipoproteins result is “significant increase”, the “lipoprotein (a)” value is “significant reduction” and the low density lipoproteins result is listed as “reduction”. Where the note is “clinically shown”, the total cholesterol result is given as “reduction” and the triglycerides entry is given as “significant reduction”. Also, the fibrinogen result (in vivo) is on record as “reduce”.
